Measured values published in US5874472A, “Aminoacid derivatives as no synthase inhibitors” (Glaxo Wellcome Inc., priority 1993, dated 1999).

Columns and labels:
[1] = phenylalanine-loaded rat; Chemical Abstracts vol. 89, 191755v; cited from earlier work
[2] = target: T1, human placental NOS (Homo sapiens, UniProt P29474); test: Inhibition of human placental NOS (citrulline formation); format: biochemical; conditions: 1 μM L-[14C] arginine; pH 7.4; calmodulin, CaCl2
T1 construct: Purification of NOS from human placenta; from tissue; host or cells: fresh human placenta, amnion and chorion removed; ammonium sulfate and 2',5' ADP agarose purified
Experimental: It is noted that the NO synthase isolated from human placenta most probably represents the endothelial constitutive isoenzyme.
Purification of NOS from human placenta.
Amion and chorion were removed from fresh placenta, which was then rinsed with 0.9% NaCl. The tissue was homogenized in a Waring blender in 3 volumes of HEDS buffer (20 mM Hepes pH 7.8, 0.1 mM EDTA, 5 mM DTT, 0.2M sucrose) plus 0.1 mM PMSF.
The homogenate was filtered through cheesecloth and then centrifuged at 1000 g for 20 min. The supernatant was recentrifuged at 27500 g for 30 min. Solid ammonium sulfate was added to the supernatant to give 32% saturation. Precipitated protein was pelleted at 25,000 g and then redissolved in a minimal volume of HEDS buffer plus 0.1 mM PMSF, 10 μg/ml leupeptin and soybean trypsin inhibitor, and 1 μg/ml pepstatin. The redissolved pellet was centrigued at 15000 g for 10 min. To the supernatant was added 1/20 volume of 2',5' ADP agarose resin (Sigma), and the slurry was mixed slowly overnight. In morning, slurry was packed into a column. The resin was sequentially washed with HEDS, 0.5M NaCl in HEDS, HEDS, and then NOS was eluted with 10 mM NADPH in HEDS. The enzyme could be concentrated by ultrafiltration and quick frozen and stored at -70° C. without loss in activity for at least 6 months.
Assay for human placental NOS
(§1) NOS was assayed for the formation of citrulline following the procedure of Schmidt et al (PNAS 88 365-369, 1991) with these modifications: 20 mM Hepes, pH 7.4, 10 μg/ml calmodulin, 2.5 mM CaCl2 2.5 mM DTT, 125 μM NADPH 10 μM H4 Biopterin, 0.5 mg/ml BSA, and 1 μM L-[^14 C] arginine (New England Nuclear). Linearity of NOS-catalyzed rate was confirmed prior to kinetic studies that used single time point determination of rate.

[3] = target: T2, human brain NOS (Homo sapiens, UniProt P29475); test: Inhibition of human brain NOS (citrulline formation); format: biochemical; conditions: Schmidt et al. 1991 procedure, 10 μM tetrahydrobiopterin included
T2 construct: Purification of NOS from human brain; from tissue; host or cells: frozen human brain; ammonium sulfate, 2',5' ADP-agarose, calmodulin-agarose
Experimental: Purification of NOS from human brain
Human brain NOS was prepared using variations of the procedures of Schmidt et al. (PNAS 88 365-369, 1991), Mayer et al. (Fed. Eur. Biochem. Soc. 288 187-191, 1991), and Bredt and Snyder, (PNAS 87 682-685, 1990). Briefly, frozen human brain (1050 gm) was homogenized in cold buffer A (50 mM HEPES, pH 7.5 (pH at RT) and 0.5 mM EDTA, 10 mM DTT, 3.6 L total volume) with a polytron. The mixture was centrifuged at 13,000 g for 1 hour and the supernatant was removed (about 2050 ml). To the supernatant, solid aimmonium sulfate (365 gm, about 30% of saturation) was added and stirred slowly for a total of 30 minutes. The precipitate was pelleted at 13,000 g for 30 minutes and the pellet was resuspended in ~400 mls of buffer A with 4 μM tetrahydrobiopterin, 1 μM FAD (Sigma), 1 μM FMN (Sigma). The solution was centrifuged at 41,000 g for 60 minutes. The supernatant was removed, frozen by pouring into liquid nitrogen, and stored overnight at -70° C. The mixture was thawed and passed through a 2',5' ADP-agarose column (0.4 g swelled in buffer A) at 4 ml/min. The column was washed with 100 ml buffer A, 200 ml buffer A with 500 mM NaCl, 100 ml Buffer A, then 30 ml buffer A with 5 mM NADPH. To the enzyme eluted from the column was added glycerol to 15%, CaCl2 to 1 mM, tetrahydrobiopterin to 10 μM, tween to 0.1% and FAD, FMN to 1 μM each. The enzyme was then passed through a 1 ml calmodulin-agarose column which had been equilibrated in Buffer A, 15% glycerol and 1 mM CaCl2. The column was washed with 15 ml Buffer A, 15% glycerol and 1 mM CaCl2, 15 ml of Buffer A, 15% glycerol and 5 mM EDTA, and then enzyme activity was eluted with 3 ml of Buffer A, 15% glycerol and 5 mM EDTA, 1 M NaCl. To the enzyme was added tetrahydrobiopterin to 10 μM, FAD and FMN to 1 μM, and tween to 0.1%. This solution was concentrated by centriprep-30 to a volume of approximately 500 μl. Human NOS was prepared completely analogously except the calmodulin-agarose column was not used. Enzyme activity was determined as described by Schmidt et al. 1991, except that 10 μM tetrahydrobiopterin was included in the assay.

[4] = target: T3, inducible human NOS (Homo sapiens, UniProt P35228); test: Inhibition of inducible human NOS (citrulline formation), enzyme from cytokine-induced DLD-1 cells; format: biochemical; conditions: NOS from cytokine-induced DLD-1 cells; 1 μM L-[14C] arginine; pH 7.4; 10 μM FAD, no calmodulin/CaCl2
T3 construct: Purification of NOS cytokine-induced human colorectal adenocarcinoma DLD-1 cells; host or cells: DLD-1 cells induced with interferon-gamma, interleukin-6, tumor necrosis factor and interleukin-1beta; 2',5' ADP Sepharose purified
Experimental: as §1
Purification of NOS cytokine-induced human colorectal adenocarcinoma DLD-1 cells.
DLD-1 (ATCC No. CCL 221) were grown at 37° C., 5% CO2 in RPMI 1640 medium supplemented with L- glutamin, penicillin, streptomycin, and 10% heat-inactivated fetal bovine serum. Cells were grown to confluency and then the following cocktail of cytokines were added: 100 units/ml interferon-gamma, 200 units/ml interleukin-6, 10 ng/ml tumor necrosis factor, and 0.5 ng/ml interieukin-1β. At 10-24 hr post-induction, cells were harvested by scraping and washed with phosphate-buffered saline. Pelleted cells were stored at -70° C. Purification of the induced NOS was performed at 4° C. Crude extract was prepared by three cycles of freeze/thawing cells in TDGB (20 mM tris pH 7.5, 10% glycerol, 1 mM DTT, 2 μM tetrahydrobiopterin). Extract was applied directly onto a column of 2',5' ADP sepharse (Pharmacia). Resin was sequentially washed with TDGB, 0.5 M NaCl in TDGB, TDGB. NOS was eluted with 2 mM NADPH in TDGB. BSA was immediately added to give a final concentration of 1 mg/ml. NOS could be quick frozen and stored at -70° C. without loss in activity for at least 2 months.
Assay for inducible human NOs.
The formation of citrulline was assayed as described above except that 10 μM FAD was included and calmodulin and CaCl2 were excluded from the assay mix.

[5] = test system: NO synthase; conditions: background statement; cited from earlier work

Compound | Ki [2] [µM] | Ki [3] [µM] | Ki [4] [µM] | further results
N=C(N)Nc1ccc(C[C@H](N)C(=O)O)cc1 [4-guanidino phenylalanine] |  |  |  | renal excretion of cystine [1]: to some extent; renal excretion of lysine [1]: increased
N=C(N)NCc1ccc(C[C@H](N)C(=O)O)cc1 [4-guanidinomethylphenylalanine] |  |  |  | renal excretion of cystine [1]: to some extent; renal excretion of lysine [1]: increased
NC(=S)Nc1ccc(C[C@H](N)C(=O)O)cc1 [Compound 28, 4-thioureido-L-phenylalanine] | > 50 | > 50 | > 50 | 
CSC(=N)Nc1ccc(C[C@H](N)C(=O)O)cc1 [Compound 29, 4-(S-methylisothioureido)-L-phenylalanine] | > 50 | > 50 | > 50 | 
CCSC(=N)Nc1ccc(C[C@H](N)C(=O)O)cc1 [Compound 30, 4-(S-ethylisothioureido)-L-phenylalanine] | ≤ 0.5 | ≤ 0.5 | ≤ 10 | 
CN=C(N)NCCC[C@H](N)C(=O)O [L-NMMA, L-N-monomethyl-arginine] |  |  |  | inhibition of the synthesis of NO from L-arginine [5]: can be inhibited; selectivity between constitutive and inducible NO synthase [5]: non-selective
nitroarginine |  |  |  | selectivity between constitutive and inducible NO synthase [5]: non-selective
